Assays:
[1] = test system: TNFα release by human PBMCs; test: Cytokine release by LPS stimulated human PBMCs (TNFα ELISA); format: cell-based; conditions: PBMC, 24 h, Table 5, LPS 1 μg/mL
Method: For the assay PBMCs are seeded at 2.5E6 cells/mL in 160 μL in 96-well plates (Nunc). Serial dilution of the test compounds are made first in DMSO (Sigma) and then diluted 50-fold in M199 medium (Gibco) containing 1% heat-inactivated FBS. Compounds are further 1/10 diluted in the assay plates to obtain final DMSO concentration of 0.2%. Cells are preincubated with the compounds for 1 hr at 37° C., 5% CO2. Then, cells are stimulated with LPS (Escherichia coli serotype 026:B6, Cat. No. L2654, Sigma) that is added in a volume of 20 μL to a final concentration of 1 μg/mL and cells are further cultured for 24 hr. The plates are centrifuged and the supernatant is collected and stored at −80° C. until analysis of appropriate dilutions in ELISAs.
After 4 hr incubation at RT, blocking buffer is removed and plates are washed once with PBST (1×PBS with 0.05% Tween-20 (Sigma)). Then, 40 μL of sample is transferred to the ELISA plates and plates are incubated at 4° C. […] After 2 h of incubation at RT, plates are washed as described above and 35 μL/well of a 1/2000 dilution of streptavidin-HRP conjugate (Cat. No. SNN2004, Biosource) in buffer D is added. After 45 min, plates are washed as described above and incubated for 5 min with 50 μL/well BM Chemiluminescence ELISA Substrate POD (Roche). Readout is performed on the Luminoscan Ascent Luminometer (Labsystems) with an integration time of 100 msec delivering raw data (RLU: relative luminescence units). The following controls are included in the experiments, a maximal signal control, in which the cells are activated by LPS but only the 0.2% DMSO vehicle (and thus no compound) is added. […] A minimal signal control is also included in these experiments. Here, cells are not triggered. […] Where compounds are tested at 8 concentrations (1/3 serial dilution), EC50-values can be calculated by curve fitting of the means of the PIN data achieved for a compound at each test concentration.

MAPKAPK5 = target: T1, MAPKAPK5 (Homo sapiens, UniProt Q8IW41); test: MAPKAP-K5 assay (FlashPlate kinase assay)
T1 sequence (Q8IW41 1-471 isoform Q8IW41-2): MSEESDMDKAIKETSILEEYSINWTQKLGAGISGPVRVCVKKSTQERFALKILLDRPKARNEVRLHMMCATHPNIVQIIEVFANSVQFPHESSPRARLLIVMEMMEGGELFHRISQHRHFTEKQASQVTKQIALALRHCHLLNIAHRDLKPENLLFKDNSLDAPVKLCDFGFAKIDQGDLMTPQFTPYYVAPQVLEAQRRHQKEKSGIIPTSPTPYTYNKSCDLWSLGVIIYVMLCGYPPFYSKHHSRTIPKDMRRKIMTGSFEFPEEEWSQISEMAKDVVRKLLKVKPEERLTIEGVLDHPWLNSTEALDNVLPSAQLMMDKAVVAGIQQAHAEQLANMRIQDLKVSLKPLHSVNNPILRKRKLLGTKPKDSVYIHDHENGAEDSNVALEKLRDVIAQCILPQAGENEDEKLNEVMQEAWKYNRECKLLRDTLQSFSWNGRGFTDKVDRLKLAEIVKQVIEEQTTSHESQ
Method: MAPKAP-K5 reactions are performed in FlashPlate format using 0.1 or 0.2 μCi 33P-ATP; 0.6 μM ATP; 1 mU MAPKAP-K5; 3 μM MAPKAP-K5 peptide substrate, incubated at room temperature for 30 minutes.
The MAPKAP-K5 kinase reaction is performed in a 384 well polypropylene plate (Matrix Technologies) and then transferred to a streptavidin-coated 384 well flashplate (Perkin-Elmer).
To wells containing 2 μL test compound or standard inhibitor, 13 μL Enzyme mix or diluent are added using a Hydra (Robbins Scientific).
Reactions are started by addition of 10 μL of [2,5×] substrate cocktail using a Multidrop (Thermo-Labsystems), to give final concentrations in the assay of:
Plates are incubated at room temperature for 30 minutes.
Reactions are terminated by the addition of 25 μL EDTA (50 mM) to each well using a Micro-fill (Biotek).
Reactions are transferred to a streptavidin-coated flashplate using a Zymark robotic system. Plates are incubated for 60 minutes at room temperature.
All wells are washed 3 times with 100 μl phosphate buffered saline using a Tecan plate washer.
Radioactivity is determined by scintillation counting of the flashplate (empty wells) on a Packard TopCount.
Enzyme Mix: • Enzyme • 50 mM Tris Hcl (pH 7.5) • 0.1 mM EGTA • 2 mM DTT • 1 mg/mL BSA
Reaction Buffer: • 50 mM Tris Hcl (pH 7.5) • 0.1 mM EGTA • 10 mM Magnesium acetate • 2 mM DTT

[2] = test system: MMP1 expression by activated primary synovial fibroblasts; test: 'MMP assay': MMP1 expression by complex trigger activated synovial fibroblasts (MMP1 ELISA); format: cell-based; conditions: Homo sapiens, Fibroblast; Table 3; RASFs, complex trigger, 48 hrs, MMP1 ELISA

IC50 (MAPKAPK5) [nM] | Structure (SMILES) | EC50 [1] [nM] | EC50 [2] [nM]
> 1000 | Fc1cc(N2CCOCC2)ccc1Nc1ncc(-c2cn[nH]c2)n2ncnc12 [Compound 67, N-(2-Fluoro-4-morpholinophenyl)-5-(1H-pyrazol-4-yl)-[1,2,4]triazolo[1,5-a]pyrazin-8-amine] | > 1000 | > 1000
> 1000 | CN1CCN(c2ccc(Nc3ncc(-c4ccc(C(N)=O)cc4)n4ncnc34)cc2)CC1 [Compound 3] | > 1000 | 101 to 500
> 1000 | NC(=O)c1coc(-c2cnc(Nc3ccc(N4CCOCC4)cc3)c3ncnn23)c1 [Compound 29, 5-(8-(4-Morpholinophenylamino)-[1,2,4]triazolo[1,5-a]pyrazin-5-yl)furan-3-carboxamide] | > 1000 | > 1000
> 1000 | CC(C)N1CCN(c2ccc(Nc3ncc(-c4ccsc4)n4ncnc34)cc2)CC1 [Compound 51, [4-(4-Isopropylpiperazin-1-yl)phenyl]-(5-thiophen-3-yl-[1,2,4]triazolo[1,5-a]pyrazin-8-yl)amine] | > 1000 | 501 to 1000
> 1000 | O=C1NCc2cc(-c3cnc(NC4CCOCC4)c4ncnn34)ccc21 [Compound 116] | > 1000 | > 1000
> 1000 | CC(=O)c1ccc(-c2cnc(Nc3ccc(N4CCOCC4)cc3)c3ncnn23)s1 [Compound 69] | > 1000 | > 1000
101 to 500 | NC(=O)c1cc(-c2cnc(Nc3ccc(N4CCNCC4)cc3)c3ncnn23)cs1 [Compound 27] | > 1000 | 501 to 1000
> 1000 | c1nc2c(Nc3ccc(N4CCOCC4)cc3)ncc(-c3ccc4nonc4c3)n2n1 [Compound 72] | > 1000 | > 1000
> 1000 | CC(C)N1CCN(c2ccc(Nc3ncc(-c4cc(C(N)=O)co4)n4ncnc34)cc2)CC1 [Compound 30] | > 1000 | > 1000
101 to 500 | CC(C)N1CCN(c2ccc(Nc3ncc(-c4ccc5c(c4)CNC5=O)n4ncnc34)c(Cl)c2)CC1 [Compound 77] | > 1000 | > 1000

Second part, the compound before the results:

Structure (SMILES) | IC50 (MAPKAPK5) [nM] | EC50 [1] [nM] | EC50 [2] [nM]
CCc1[nH]ncc1-c1cnc(Nc2ccc(N3CCOCC3)cc2)c2ncnn12 [Compound 52, 5-(5-Ethyl-1H-pyrazol-4-yl)-N-(4-morpholinophenyl)-[1,2,4]triazolo[1,5-a]pyrazin-8-amine] | > 1000 | > 1000 | > 1000
NC(=O)c1ccc(-c2cnc(Nc3ccc(OCCN4CCOCC4)cc3)c3ncnn23)s1 [Compound 22, 5-(8-(4-(2-Morpholinoethoxy)phenylamino)-[1,2,4]triazolo[1,5-a]pyrazin-5-yl)thiophene-2-carboxamide] | 501 to 1000 | > 1000 | > 1000
NC(=O)c1cc(-c2cnc(Nc3ccc(N4CCN(CC5CC5)CC4)cc3)c3ncnn23)cs1 [Compound 58, 4-{8-[4-(4-(Cyclopropylmethyl)piperazin-1-yl)-phenylamino]-[1,2,4]triazolo[1,5-a]pyrazin-5-yl}thiophene-2-carboxylic acid amide] | 101 to 500 | > 1000 | 101 to 500
O=C1NCc2cc(-c3cnc(Nc4ccc(N5CCOCC5)cc4)c4ncnn34)sc21 [Compound 113] | 501 to 1000 | > 1000 | 101 to 500
c1nc2c(Nc3ccc(N4CCNCC4)cc3)ncc(-c3cn[nH]c3)n2n1 [Compound 40] | 501 to 1000 | 501 to 1000 | > 1000
CNCc1cc(Nc2ncc(-c3ccc4c(c3)CNC4=O)n3ncnc23)ccc1N1CCOCC1 [Compound 179] | 101 to 500 | > 1000 | > 1000
c1nc2c(Nc3ccc(OCCN4CCOCC4)cc3)ncc(-c3cn[nH]c3)n2n1 [Compound 20] | > 1000 | > 1000 | > 1000
CN1CCN(c2ccc(Nc3ncc(-c4csc(C(N)=O)c4)n4ncnc34)cc2)CC1 [Compound 6, 4-{8-[4-(4-Methyl-piperazin-1-yl)-phenylamino]-[1,2,4]triazolo[1,5-a]pyrazin-5-yl}-thiophene-2-carboxylic acid amide] | 1 to 100 | > 1000 | 101 to 500
NC(=O)c1nc(-c2cnc(Nc3ccc(N4CCOCC4)cc3)c3ncnn23)cs1 [Compound 61, 4-[8-(4-Morpholin-4-ylphenylamino)-[1,2,4]triazolo[1,5-a]pyrazin-5-yl]thiazole-2-carboxylic acid amide] | > 1000 | > 1000 | 501 to 1000
CC(C)N1CCN(c2ccc(Nc3ncc(-c4coc(C(N)=O)c4)n4ncnc34)cn2)CC1 [Compound 86, 4-(8-(6-(4-Isopropylpiperazin-1-yl)pyridin-3-ylamino)-[1,2,4]triazolo[1,5-a]pyrazin-5-yl)furan-2-carboxamide] | 1 to 100 | > 1000 | > 1000
NC(=O)c1cc(-c2cnc(Nc3ccc(N4CCOCC4)nc3)c3ncnn23)cs1 [Compound 47, 4-[8-(6-[Morpholin-4-yl]pyridin-3-ylamino)-[1,2,4]triazolo[1,5-a]pyrazin-5-yl]thiophene-2-carboxylic acid amide] | 101 to 500 | > 1000 | 501 to 1000
OCc1n[nH]cc1-c1cnc(Nc2ccc(N3CCOCC3)cc2)c2ncnn12 [Compound 70, (4-(8-(4-Morpholinophenylamino)-[1,2,4]triazolo[1,5-a]pyrazin-5-yl)-1H-pyrazol-5-yl)methanol] | > 1000 | > 1000 | > 1000
CC(C)(C)N1CCN(c2ccc(Nc3ncc(-c4ccc5c(c4)CNC5=O)n4ncnc34)cc2)CC1 [Compound 102, 5-{8-[4-(4-tert-Butyl-piperazin-1-yl)-phenylamino]-[1,2,4]triazolo[1,5-a]pyrazin-5-yl}-2,3-dihydro-isoindol-1-one] | 1 to 100 | > 1000 | > 1000
O=C1NCc2cc(-c3cnc(Nc4ccc(OCCN5CCOCC5)cc4)c4ncnn34)ccc21 [Compound 65, 5-(8-(4-(2-Morpholinoethoxy)phenylamino)-[1,2,4]triazolo[1,5-a]pyrazin-5-yl)isoindolin-1-one] | 101 to 500 | > 1000 | 101 to 500
c1nc2c(Nc3ccc(N4CCN(CC5CC5)CC4)cc3)ncc(-c3cn[nH]c3)n2n1 [Compound 46, {4-[4-(Cyclopropylmethyl)piperazin-1-yl]phenyl}-[5-(1H-pyrazol-4-yl)-[1,2,4]triazolo[1,5-a]pyrazin-8-yl]amine] | > 1000 | > 1000 | > 1000
CC(C)N1CCN(c2ccc(Nc3ncc(-c4csc(C(N)=O)n4)n4ncnc34)cc2)CC1 [Compound 62, 4-{8-[4-(4-Isopropylpiperazin-1-yl)phenylamino]-[1,2,4]triazolo[1,5-a]pyrazin-5-yl}thiazole-2-carboxylic acid amide] | 501 to 1000 | 501 to 1000 | > 1000
CC(C)N1CCC(c2ccc(Nc3ncc(-c4csc(C(N)=O)c4)n4ncnc34)cc2)CC1 [Compound 89, 4-{8-[4-(1-Isopropylpiperidin-4-yl)phenylamino]-[1,2,4]triazolo[1,5-a]pyrazin-5-yl}-thiophene-2-carboxylic acid amide] | 1 to 100 | > 1000 | 501 to 1000
CC(C)N1CCN(c2ccc(Nc3ncc(-c4csc5c(C(N)=O)cccc45)n4ncnc34)cc2)CC1 [Compound 81, 3-{8-[4-(4-Isopropylpiperazin-1-yl)phenylamino]-[1,2,4]triazolo[1,5-a]pyrazin-5-yl}benzo[b]thiophene-7-carboxylic acid amide] | > 1000 | > 1000 | > 1000
O=C1NCc2cc(-c3cnc(NC4CCCC4)c4ncnn34)ccc21 [Compound 181] | 101 to 500 | > 1000 | > 1000

Reference: US20100298300A1, “TRIAZOLOPYRAZINE COMPOUNDS USEFUL FOR THE TREATMENT OF DEGENERATIVE & INFLAMMATORY DISEASES” (priority 2006, published 2010)
